Experimental data taken from article PMC10571957, “αV-Integrin-Dependent Inhibition of Glioblastoma Cell Migration, Invasion and Vasculogenic Mimicry by the uPAcyclin Decapeptide” (Cancers, 2023).
“And” between values parts separate entries of the source, which are not always exact repeats. Identical values can stand only once.

Columns and labels:
U138-MG cells = test: Boyden chamber Matrigel invasion, U138-MG; assay type: cell-based, human; conditions: for invasion, % of basal, average 2 expts: mean of 2 expts; for invasion, % of basal, average expt 1: mean of expt 1; for invasion, % of basal, average expt 2: mean of expt 2; for invasion, % of basal, T-test list: single replicates of both expts
Method: (§1) The migration and invasion assays were performed using Boyden chambers and 8 µm pore size PVP-free filters coated with 50 µg/mL of collagen type VI (Sigma), as previously described. For the invasion assays, collagen-coated filters were further coated with 50 µg/mL Matrigel^TM (Sigma). Briefly, 11 × 10^4 U87-MG, 4 × 10^4 U251-MG, or 4 × 10^4 U138-MG/sample were pre-treated for 40 min at 37 °C with the indicated effectors. Then, the cells were allowed to migrate for 3 h or to invade for 5 h at 37 °C toward 5% FBS in DMEM/0.1% BSA. At the end of both assays, the cells on the lower filter surface were fixed, stained with haematoxylin, and counted under an optical microscope (Zeiss Axiophot, Carl Zeiss, Milan, Italy) at 20× magnification. The migration and invasion experiments were conducted in triplicate for U87-MG and in duplicate for U251-MG and U138-MG. The migrated or invaded cells were reported as percentage of basal migration or invasion in the presence of DMEM/0.1% BSA, taken as 100%, and analyzed as reported in Section 2.11.
Figure 4 Effect of uPAcyclin on matrix invasion of U87-MG, U251-MG, and U138-MG GBM cells. Quantitative analysis of U87-MG (A), U251-MG (B), and U138-MG (C) invasion. A total of 11 × 10^4 U87-MG or […] U251-MG or U138-MG/sample were pre-treated for 40 min at 37 °C with uPAcyclin (100 nM, 1 µM), anti-αV polyclonal (anti-αV-Pclonal) or monoclonal (anti-αV MoAb) antibody, or anti-actin polyclonal antibody (anti-actin), and then assayed in Boyden chambers at 37 °C, either for basal (BSA) or FBS-dependent invasion (5% FBS) for 5 h at 37 °C. Data are expressed as in the legend to Figure 3. Results are expressed as percentages with respect to the basal invasion, considered as 100% (* p-value < 0.05; ** p-value < 0.005; *** p-value < 0.001).

[1] = system: cancer-associated fibroblasts (CAFs) from breast cancer patients; conditions: ref [30]; cited from earlier work
Description: Thus, in the present work, we investigated the effects of the anti-migratory uPAcyclin decapeptide, binding to the αV integrin subunit. This cyclic decapeptide is derived from a non-catalytic region of the human urokinase (uPA) plasminogen activator. The growth factor domain (GFD, residues 1–49) and the connecting peptide region (CP, residues 132–158) confer to the full uPA a clearcut motogen activity. While the GFD binds to the urokinase receptor (uPAR), the CP region binds to the αV integrin subunit.

U87-MG cells = test: Boyden chamber Matrigel invasion, U87-MG; assay type: cell-based, human; conditions: for invasion, % basal, average expt 1: mean of expt 1
Method: as §1, with “The migration and invasion experiments were conducted in triplicate for U87-MG and in duplicate for U251-MG and U138-MG.” left out
Figure 4 Effect of uPAcyclin on matrix invasion of U87-MG, U251-MG, and U138-MG GBM cells. Quantitative analysis of U87-MG (A), U251-MG (B), and U138-MG (C) invasion. […] Data are expressed as in the legend to Figure 3. Results are expressed as percentages with respect to the basal invasion, considered as 100% (* p-value < 0.05; ** p-value < 0.005; *** p-value < 0.001).

[2] = 100 nM, 5% FBS, 5 h, expt 1, duplicates
[3] = 100 nM, 5% FBS, 5 h, expt 2, duplicates
[4] = 1 µM, 5% FBS, 5 h, expt 1, duplicates
[5] = 1 µM, 5% FBS, 5 h, expt 2, duplicates
[6] = 100 nM, 5% FBS, 5 h, expt 3, duplicates

Ac-K^1P[ESPPEELK^10]-NH2 (sidechain bridge or staple) [uPAcyclin]
reduction in invasion (U138-MG cells; 100 nM, U138-MG, 5% FBS, 5 h): 50–60% | invaded cell number/field (U138-MG cells; [2]): 10 cell number/field and 8 cell number/field | invasion, % of basal (U138-MG cells; [2]): 143% and 114% | invaded cell number/field (U138-MG cells; [3]): 9 cell number/field and 8 cell number/field | invasion, % of basal (U138-MG cells; [3]): 150% and 133% | invasion, % of basal, average 2 expts (U138-MG cells; 100 nM, 5% FBS, 5 h): 135% | invasion, % of basal, average expt 1 (U138-MG cells; 100 nM, 5% FBS, 5 h): 129% | invasion, % of basal, average expt 2 (U138-MG cells; 100 nM, 5% FBS, 5 h): 142% | invasion, % of basal, T-test list (U138-MG cells; 100 nM): 143 and 114 and 150 and 133 | invasion, in words (U138-MG cells; 1 µM, U138-MG, 5% FBS, 5 h): reduced invasion to basal levels | invaded cell number/field (U138-MG cells; [4]): 7 cell number/field and 6 cell number/field | invasion, % of basal (U138-MG cells; [4]): 100% and 86% | invaded cell number/field (U138-MG cells; [5]): 6 cell number/field and 5 cell number/field | invasion, % of basal (U138-MG cells; [5]): 100% and 83% | invasion, % of basal, average 2 expts (U138-MG cells; 1 µM, 5% FBS, 5 h): 92% | invasion, % of basal, average expt 1 (U138-MG cells; 1 µM, 5% FBS, 5 h): 93% | invasion, % of basal, average expt 2 (U138-MG cells; 1 µM, 5% FBS, 5 h): 92% | invasion, % of basal, T-test list (U138-MG cells; 1 µM): 100 and 86 and 83 | pro-invasive ability of CAFs [1]: inhibited the pro-invasive ability of cancer-associated fibroblasts | reduction in invasion (U87-MG cells; 100 nM, U87-MG, 5% FBS, 5 h): 50–60% | invaded cell number/field (U87-MG cells; [2]): 29 cell number/field and 28 cell number/field | invasion, % of basal (U87-MG cells; [2]): 111% and 108% | invaded cell number/field (U87-MG cells; [3]): 28 cell number/field and 29 cell number/field | invasion, % of basal (U87-MG cells; [3]): 117% and 121% | invaded cell number/field (U87-MG cells; [6]): 34 cell number/field and 33 cell number/field | invasion, % of basal (U87-MG cells; [6]): 131% and 127% | Invasion, %, average 3 expts (U87-MG cells; 100 nM, mean of 3 expts): 119% | invasion, % basal, average expt 1 (U87-MG cells; 100 nM): 110% | invasion, % basal, average expt 2 (U87-MG cells; 100 nM, mean of expt 2): 119% | invasion, % basal, average expt 3 (U87-MG cells; 100 nM, mean of expt 3): 129% | invasion, % of basal, T-test list (U87-MG cells; 100 nM, single replicates of 3 expts): 111 and 108 and 117 and 121 and 131 and 127 | invasion, in words (U87-MG cells; 1 µM, U87-MG, 5% FBS, 5 h): reduced invasion to basal levels | invaded cell number/field (U87-MG cells; [4]): 24 cell number/field and 26 cell number/field | invasion, % of basal (U87-MG cells; [4]): 92% and 100% | Invasion, %, average 3 expts (U87-MG cells; 1 µM, headed average 3 expts (only expt 1 has data)): 96% | invasion, % basal, average expt 1 (U87-MG cells; 1 µM): 96% | invasion, % of basal, T-test list (U87-MG cells; printed 10 µM, single replicates): 92 and 100
